Patent publication EP2140864A2 (H. Lundbeck A/S, priority 2001, dated 2002)
Read-outs that look alike come from different tables or passages of the source.

Experiments:
human GAL2 receptor = molecular target: T1, human GAL2 receptor (Homo sapiens, UniProt O43603); experiment: Radioligand binding at cloned human GAL2 receptor; conditions: read-out: Ki GalR2
T1 construct: expressed in transfected cells
T1 sequence (O43603 1-387): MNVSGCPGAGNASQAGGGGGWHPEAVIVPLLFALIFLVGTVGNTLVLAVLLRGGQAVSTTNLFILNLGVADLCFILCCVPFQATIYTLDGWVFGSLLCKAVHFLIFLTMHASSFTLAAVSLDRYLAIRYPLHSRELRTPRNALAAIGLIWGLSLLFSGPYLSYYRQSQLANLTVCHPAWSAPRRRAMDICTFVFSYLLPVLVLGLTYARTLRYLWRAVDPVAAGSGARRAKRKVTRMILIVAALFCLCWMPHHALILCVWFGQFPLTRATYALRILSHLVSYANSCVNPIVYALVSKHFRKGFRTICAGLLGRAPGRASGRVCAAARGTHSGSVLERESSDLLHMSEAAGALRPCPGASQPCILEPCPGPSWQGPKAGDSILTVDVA
Experimental: The binding properties of the pyrimidines of the present invention were evaluated at the cloned human galanin receptors, GAL1, GAL2, and GAL3, using protocols described herein.
The binding properties of the indolones of the present invention were evaluated at the cloned human galanin receptors, GAL1, GAL2, and GAL3, using protocols described herein.
(§1) LM(tk-) cells were stably transfected with the human GAL1 or GAL3 receptor. CHO cells were stably transfected with the human GAL2 receptor.
(§2) cDNAs for the human and rat GAL1, and human and rat GAL3 receptors were transfected with a G-418 resistant gene into the mouse fibroblast LM(tk-) cell line by a calcium phosphate transfection method (Cullen, 1987). Stably transfected cells were selected with G-418. Human and rat GAL2 receptors were similarly transfected into CHO cells.
(§3) Membranes were harvested from stably transfected LM(tk-) cells. Adherent cells were washed twice in ice-cold phosphate buffered saline (138 mM NaCl, 8.1 mM Na2HPO4, 2.5 mM KCl, 1.2 mM KH2PO4, 0.9 mM CaCl2, 0.5 mM MgCl2, pH 7.4) and lysed by sonication in ice-cold sonication buffer (20 mM Tris-HCl, 5 mM EDTA, pH 7.7). Large particles and debris were cleared by low speed centrifugation (200 x g, 5 min, 4°C). Membranes were collected from the supernatant fraction by centrifugation (32,000 x g, 18 min, 4°C), washed with ice-cold hypotonic buffer, and collected again by centrifugation (32,000 x g, 18 min, 4°C). The final membrane pellet was resuspended by sonication into a small volume of ice-cold binding buffer (-1 ml for every 5 plates: 10 mM NaCl, 20 mM HEPES, 0.22 mM KH2PO4, 1.26 mM CaCl2, 0.81 mM MgSO4, pH 7.4). Protein concentration was measured by the Bradford method (Bradford, 1976) using Bio-Rad Reagent, with bovine serum albumin as a standard. Membranes were held on ice for up to one hour and used fresh, or flash frozen and stored in liquid nitrogen. Membranes were prepared similarly from CHO cells.
(§4) Galanin Recentors: Binding assays were performed according to the following published methods: human GAL3 (PCT International Publication No. WO 98/15570), human GAL1 (PCT International Publication No. WO 95/2260), human GAL2 (PCT International Publication No. WO 97/26853).
(§5) Binding data were analyzed using nonlinear regression and statistical techniques available in the GraphPAD Prism package (San Diego, CA). Enzymatic assay data were derived from a standard curve of reference compound data.

human GAL1 receptor = molecular target: T2, human GAL1 receptor (Homo sapiens, UniProt P47211); experiment: Radioligand binding at cloned human GAL1 receptor; conditions: read-out: Ki GalR1
T2 construct: expressed in transfected cells
T2 sequence (P47211 1-349): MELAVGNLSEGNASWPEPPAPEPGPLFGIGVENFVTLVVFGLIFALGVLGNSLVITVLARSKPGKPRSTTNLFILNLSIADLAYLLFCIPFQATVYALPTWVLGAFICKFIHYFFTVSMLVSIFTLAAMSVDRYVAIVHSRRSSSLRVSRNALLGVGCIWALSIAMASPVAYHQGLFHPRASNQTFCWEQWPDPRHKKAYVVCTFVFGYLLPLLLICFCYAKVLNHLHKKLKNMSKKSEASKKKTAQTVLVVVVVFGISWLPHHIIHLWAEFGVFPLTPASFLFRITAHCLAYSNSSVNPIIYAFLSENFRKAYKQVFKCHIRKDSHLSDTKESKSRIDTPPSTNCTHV
Experimental: The binding properties of the pyrimidines of the present invention were evaluated at the cloned human galanin receptors, GAL1, GAL2, and GAL3, using protocols described herein. […]
as §1, §2, §3, §4, §5

human GAL3 receptor = molecular target: T3, human GAL3 receptor (Homo sapiens, UniProt O60755); experiment: Radioligand binding at cloned human GAL3 receptor; conditions: cloned human receptor, read-out: Ki GalR3
T3 construct: expressed in transfected cells
T3 sequence (O60755 1-368): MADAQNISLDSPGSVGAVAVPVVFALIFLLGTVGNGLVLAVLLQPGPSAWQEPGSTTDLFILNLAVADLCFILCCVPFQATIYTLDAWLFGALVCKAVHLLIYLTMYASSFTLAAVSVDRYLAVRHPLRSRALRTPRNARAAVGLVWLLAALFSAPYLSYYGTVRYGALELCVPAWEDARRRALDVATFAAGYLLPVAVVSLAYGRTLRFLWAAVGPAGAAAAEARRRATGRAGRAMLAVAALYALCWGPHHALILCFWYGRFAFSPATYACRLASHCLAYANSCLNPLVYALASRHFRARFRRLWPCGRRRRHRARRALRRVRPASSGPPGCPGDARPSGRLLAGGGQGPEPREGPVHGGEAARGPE
In short: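 Compound vehicle, as final assay concentration, was 3% DMSO (indolones) or 1% ethanol/0.09% polypuronic acid F-127 (pyrimidines). Binding measured on fresh or frozen membranes of stably transfected LM(tk-) mouse fibroblasts carrying cloned human GAL3, in pH 7.4 HEPES buffer; values derived by nonlinear regression.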

SMILES | Ki (human GAL2 receptor; pyrimidines) [nM] | Ki (human GAL1 receptor; pyrimidines) [nM] | Ki (human GAL3 receptor; pyrimidines) [nM] | Ki (human GAL2 receptor; indolones) [nM] | Ki (human GAL1 receptor; indolones) [nM] | Ki (human GAL3 receptor; indolones) [nM]
Cc1ccc(Nc2cc(N3CCN(c4ncccc4C(F)(F)F)CC3)nc(N3CCCCC3)n2)cc1 [Example 89] | 1270 | 1120 | 105 | – | – | –
Cc1cc(C)cc(N=C2C(=O)N(c3ccccc3)c3ccccc32)c1 [Example 104] | – | – | – | > 10000 | > 10000 | 143
COc1ccc(N=C2C(=O)N(c3ccccc3)c3ccccc32)cc1 [Example 102, 3-[(4-METHOXYPHENYL)IMINO]-1-PHENYL-1,3-DIHYDRO-2H-INDOL-2-ONE] | – | – | – | > 10000 | > 10000 | 429
CN(C)c1cc(NC2CCC(C(C)(C)C)CC2)nc(Nc2ccccc2)n1 (centres unmarked) [Example 68] | 2150 | > 5000 | 164 | – | – | –
Cc1cc(Nc2cc(N(C)C)nc(Nc3ccccc3)n2)ccc1Cl [Example 61] | > 5000 | > 5000 | 753 | – | – | –
Cc1ccc(Nc2cc(N3CCCCC3)nc(NC(C)Cc3c[nH]c4ccccc34)n2)cc1 (centres unmarked) [Example 20] | > 5000 | > 5000 | 164 | – | – | –
CN(CCc1c[nH]c2ccccc12)c1nc(Nc2ccc3ccccc3c2)cc(N2CCCCC2)n1 [Example 13] | 1410 | 2070 | 81 | – | – | –
Cc1ccc(Nc2cc(N3CCCCC3)nc(N3CCOC(c4ccccc4)C3)n2)cc1 (centres unmarked) [Example 47] | 3010 | > 5000 | 115 | – | – | –
Cc1ccc(Nc2cc(N3CCCCC3)nc(NCCc3c[nH]c4ccc(C)cc34)n2)cc1 [Example 8] | 795 | – | 264 | – | – | –
Cc1ccc(Nc2cc(N(C)C)nc(N3CCC(c4ccccc4)CC3)n2)cc1 [Example 81] | 4790 | – | 160 | – | – | –
C=CCN1C(=O)C(=Nc2cc(Cl)cc(Cl)c2)c2ccccc21 [Example 106, 1-ALLYL-3-[(3,5-DICHLOROPHENYL)IMINO]-1,3-DIHYDRO-2H-INDOL-2-ONE] | – | – | – | > 10000 | > 10000 | 62
CCOc1ccc(N=C2C(=O)N(c3ccccc3)c3ccccc32)cc1 [Example 101, 3-[(4-ETHOXYPHENYL)IMINO]-1-PHENYL-1,3-DIHYDRO-2H-INDOL-2-ONE] | – | – | – | > 10000 | > 10000 | 305
Cc1ccc(Nc2cc(N(C)C)nc(N3CCC(O)(c4ccccc4)CC3)n2)cc1 [Example 80] | 2480 | – | 615 | – | – | –
Cc1ccc(Nc2cc(N3CCCCC3)nc(N(C)c3ccccc3)n2)cc1 [Example 6] | 2160 | – | 248 | – | – | –
Cc1ccc(N=C2C(=O)N(c3ccccc3)c3ccccc32)cc1 [Example 96] | – | – | – | > 10000 | > 10000 | 111
Cc1ccc(Nc2cc(N3CCCCC3)nc(N3CCN(c4c(C)cccc4C)CC3)n2)cc1 [Example 27] | 272 | 2690 | 63 | – | – | –

SMILES | Ki (human GAL2 receptor; pyrimidines) [nM] | Ki (human GAL1 receptor; pyrimidines) [nM] | Ki (human GAL3 receptor; pyrimidines) [nM] | Ki (human GAL2 receptor; indolones) [nM] | Ki (human GAL1 receptor; indolones) [nM] | Ki (human GAL3 receptor; indolones) [nM]
Cc1ccc(Nc2cc(N3CCCCC3)nc(N3CCN(c4cc(C(F)(F)F)ccn4)CC3)n2)cc1 [Example 32] | 1860 | – | 145 | – | – | –
Cc1ccc(Nc2cc(N3CCCCC3)nc(N(C)C3CCCCC3)n2)cc1 [Example 1] | 188 | 668 | 35 | – | – | –
CN(C)c1cc(NC2CC3CCC2(C)C3(C)C)nc(Nc2ccccc2)n1 (centres unmarked) [Example 70] | 944 | > 5000 | 476 | – | – | –
Cc1ccc(Nc2cc(N3CCCCC3)nc(N3CCC(O)(c4ccccc4)CC3)n2)cc1 [Example 44] | 1020 | – | 133 | – | – | –
Cc1ccc(Nc2cc(N(C)C)nc(N3CCc4ccccc43)n2)cc1 [Example 75] | 2460 | 1460 | 144 | – | – | –
CCN(CCc1c[nH]c2ccccc12)c1nc(Nc2ccc(C)cc2)cc(N2CCCCC2)n1 [Example 18] | 543 | 3590 | 40 | – | – | –
Cc1ccc(Nc2cc(N(C)C)nc(N(C)c3ccc(C)cc3)n2)cc1 [Example 72] | 2080 | – | 132 | – | – | –
Cc1ccc(Nc2cc(N(C)C)nc(N(C)C3CCCCC3)n2)cc1 [Example 73] | 1550 | – | 124 | – | – | –
COCCN(CCc1c[nH]c2ccccc12)c1nc(Nc2ccc(C)cc2)cc(N2CCCCC2)n1 [Example 19] | 1770 | – | 79 | – | – | –
Cc1ccc(Nc2cc(N3CCCCC3)nc(NCCc3c[nH]c4ccccc34)n2)cc1 [Example 10] | 865 | – | 100 | – | – | –
Cc1ccc(Nc2cc(N3CCCCC3)nc(N3CCN(c4ncccn4)CC3)n2)cc1 [Example 37] | 903 | – | 343 | – | – | –
Cc1ccc(Nc2cc(N3CCCCC3)nc(N3CCN(c4ncccc4C)CC3)n2)cc1 [Example 31] | 3400 | – | 174 | – | – | –
Cc1ccc(Nc2cc(N3CCCCC3)nc(N3CCC(c4ccccc4)CC3)n2)cc1 [Example 24] | 3960 | – | 210 | – | – | –
Cc1ccc(Nc2cc(N3CCCCC3)nc(N3CCCc4ccccc43)n2)cc1 [Example 40] | 2620 | – | 164 | – | – | –
CN(CCc1c[nH]c2ccccc12)c1nc(Nc2cccc(F)c2)cc(N2CCCCC2)n1 [Example 14] | 1340 | – | 54 | – | – | –
COc1cc2c(cc1OC)CN(c1nc(Nc3ccc(C)cc3)cc(N3CCCCC3)n1)CC2 [Example 42] | 1140 | – | 275 | – | – | –
